From ChEMBL document CHEMBL3217601, “Optimized glucuronidation of dual pharmacology -2 agonists/M3 antagonists for the treatment of COPD” (Medchemcomm, 2011)
pEC50, pKi: −log10 of the molar value. Calls of active or inactive are those of the source. No cut-off for these calls is given here.

Experiments:
[1] = species: Cavia porcellus; experiment: Modulation of beta-2 adrenoceptor/muscarinic M3 receptor in guinea pig trachea assessed as time taken for muscle tone at submaximal concentration of compound to recover by 50% of inhibition induced; format: tissue-based
[2] = species: Oryctolagus cuniculus; experiment: Toxicity in rabbit cough model; format: organism-based; conditions: in vivo
[3] = molecular target: Muscarinic acetylcholine receptor M3 (Cavia porcellus, UniProt Q8VH26); experiment: Antagonist activity at muscarinic M3 receptor in guinea pig trachea assessed as inhibition of electric field stimulated muscle contraction by measuring release of endogenous acetylcholine in presence of propranolol
[4] = species: Cavia porcellus; experiment: Bronchodilatory activity in guinea pig in presence of NK2 agonist BANA; format: functional, organism-based
[5] = molecular target: T1, Beta-2 adrenergic receptor (Homo sapiens, UniProt P07550); experiment: Agonist activity at human beta-2 adrenoceptor expressed in CHO cells assessed as stimulation of intracellular cAMP production; format: functional, cell-based
Target sequence in this assay (P07550 whole entry): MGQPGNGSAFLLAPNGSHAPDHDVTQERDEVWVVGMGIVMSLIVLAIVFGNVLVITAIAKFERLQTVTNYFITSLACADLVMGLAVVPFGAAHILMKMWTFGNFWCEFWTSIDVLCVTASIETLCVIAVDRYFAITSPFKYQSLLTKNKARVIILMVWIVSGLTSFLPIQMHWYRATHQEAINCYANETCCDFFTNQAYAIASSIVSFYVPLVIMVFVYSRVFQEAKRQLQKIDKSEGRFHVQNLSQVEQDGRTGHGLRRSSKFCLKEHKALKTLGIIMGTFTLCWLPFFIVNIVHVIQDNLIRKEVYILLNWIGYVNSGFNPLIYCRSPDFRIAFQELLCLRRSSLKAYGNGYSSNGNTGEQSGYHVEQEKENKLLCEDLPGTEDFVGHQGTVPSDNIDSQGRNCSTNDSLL

[6] = Drug metabolism in human hepatocytes assessed as formation of phenol glucuronide and sulfate metabolite by LC/MS/MS analysis; format: ADME, cell-based, Hepatocyte
[7] = test system: Canis familiaris; experiment: Bronchodilatory activity in intratracheally dosed dog assessed as inhibition of methacholine-induced bronchoconstriction in presence of NK2 agonist BANA; format: functional, organism-based; conditions: Canis lupus familiaris
[8] = Intrinsic clearance in human liver microsomes assessed as glucuronidation in absence of NADPH and presence of microsomal activator Brij58 and UDPGA
[9] = test system: Canis familiaris; experiment: Bronchodilatory activity in intratracheally dosed dog assessed as inhibition of methacholine-induced bronchoconstriction; format: functional, Canis lupus familiaris
[10] = AUC in rat at 2 mg/kg, iv; format: ADME, organism-based; parameters: dose 2 mg/kg, route intravenous; conditions: plasma
[11] = Stability of the compound at 70 degC and 75% relative humidity assessed as impurity after 7 days; format: physicochemical; conditions: 168 h
[12] = Half life in guinea pig at 0.2 mg/kg, po; format: ADME, organism-based, Cavia porcellus; parameters: dose 0.2 mg/kg, route oral; conditions: in vivo
[13] = test system: Canis familiaris; experiment: Bronchodilatory activity in intratracheally dosed dog assessed as duration of inhibition of methacholine-induced bronchoconstriction; format: functional, Canis lupus familiaris
[14] = molecular target: Beta-1 adrenergic receptor (Homo sapiens, UniProt P08588); experiment: Agonist activity at beta-1 adrenoceptor (unknown origin)
[15] = molecular target: Beta-2 adrenergic receptor (Cavia porcellus, UniProt Q8K4Z4); experiment: Agonist activity at beta-2 adrenoceptor in guinea pig trachea assessed as inhibition of histamine-induced muscle contraction
[16] = AUC in guinea pig at 0.2 mg/kg, po; format: ADME, organism-based, Cavia porcellus; parameters: dose 0.2 mg/kg, route oral; conditions: plasma
[17] = molecular target: T2, Muscarinic acetylcholine receptor M3 (Homo sapiens, UniProt P20309); experiment: Displacement of [3H]-N-methyl scopolamine from human cloned muscarinic M3 receptor
Target sequence in this assay (P20309 whole entry): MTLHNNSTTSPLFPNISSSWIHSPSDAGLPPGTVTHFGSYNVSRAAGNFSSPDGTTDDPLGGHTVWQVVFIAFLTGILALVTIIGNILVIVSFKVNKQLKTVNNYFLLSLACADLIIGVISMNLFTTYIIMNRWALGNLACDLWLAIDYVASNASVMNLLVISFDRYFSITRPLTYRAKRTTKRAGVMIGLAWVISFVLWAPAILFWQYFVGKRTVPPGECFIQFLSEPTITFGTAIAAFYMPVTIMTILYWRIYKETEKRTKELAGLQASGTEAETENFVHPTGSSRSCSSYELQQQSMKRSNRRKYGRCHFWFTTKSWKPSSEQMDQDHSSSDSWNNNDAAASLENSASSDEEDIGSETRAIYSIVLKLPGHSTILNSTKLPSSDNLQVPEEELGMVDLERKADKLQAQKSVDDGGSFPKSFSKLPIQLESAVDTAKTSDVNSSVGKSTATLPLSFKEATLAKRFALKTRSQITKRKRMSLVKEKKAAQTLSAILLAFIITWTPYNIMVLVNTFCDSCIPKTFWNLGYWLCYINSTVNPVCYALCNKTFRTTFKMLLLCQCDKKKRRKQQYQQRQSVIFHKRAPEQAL

[18] = AUC in rat at 0.2 mg/kg, po; format: ADME, organism-based; parameters: dose 0.2 mg/kg, route oral; conditions: plasma
[19] = molecular target: T1, Beta-2 adrenergic receptor; experiment: Ratio of EC50 for human beta-2 adrenoceptor measured after drug washout to EC50 for human beta-2 adrenoceptor
Target sequence in this assay (P07550 whole entry, looked up): as the sequence (P07550 whole entry) above

[20] = test system: Canis familiaris; experiment: Bronchodilatory activity in intratracheally dosed dog assessed as inhibition of methacholine-induced bronchoconstriction in presence of propranolol; format: functional, organism-based; conditions: Canis lupus familiaris
[21] = Genotoxicity in micronucleus (unknown origin)
[22] = Drug metabolism of the compound in human liver microsomes assessed as glucuronidation in absence of NADPH and presence of microsomal activator Brij58 and UDPGA
[23] = test system: Salmonella typhimurium; experiment: Genotoxicity in Salmonella typhimurium assessed by Ames test; format: toxicity, organism-based; conditions: salmonella enterica subsp. enterica serovar typhimurium
[24] = species: Cavia porcellus; experiment: Bronchodilatory activity in guinea pig in presence of propranolol; format: functional, organism-based
[25] = Half life in rat at 0.2 mg/kg, po; format: ADME, organism-based; parameters: dose 0.2 mg/kg, route oral; conditions: in vivo
[26] = molecular target: T2, Muscarinic acetylcholine receptor M3; experiment: Displacement of [3H]-N-methyl scopolamine from human cloned muscarinic M3 receptor assessed as time taken to reach 50% of total [3H]-NMS
Target sequence in this assay (P20309 whole entry, looked up): as the sequence (P20309 whole entry) above

[27] = Clearance in rat at 0.2 mg/kg, po; format: ADME, organism-based; parameters: dose 0.2 mg/kg, route oral; conditions: in vivo
[28] = molecular target: Muscarinic acetylcholine receptor M3 (Cavia porcellus) (UniProt Q8VH26); experiment: Antagonist activity at muscarinic M3 receptor in guinea pig trachea assessed as time taken for muscle tone at submaximal concentration of compound to recover by 50% of inhibition induced in presence of propranolol
[29] = Clearance in guinea pig at 0.2 mg/kg, po; format: ADME, organism-based, Cavia porcellus; parameters: dose 0.2 mg/kg, route oral; conditions: in vivo
[30] = Clearance in rat at 2 mg/kg, iv; format: ADME, organism-based; parameters: dose 2 mg/kg, route intravenous; conditions: in vivo
[31] = Modulation of beta-2 adrenoceptor/muscarinic M3 receptor in guinea pig trachea assessed as inhibition of electric field stimulated muscle contraction by measuring release of endogenous acetylcholine; format: tissue-based, Cavia porcellus

Chain of Beta-2 adrenergic receptor (Cavia porcellus, UniProt Q8K4Z4) (Q8K4Z4 whole entry): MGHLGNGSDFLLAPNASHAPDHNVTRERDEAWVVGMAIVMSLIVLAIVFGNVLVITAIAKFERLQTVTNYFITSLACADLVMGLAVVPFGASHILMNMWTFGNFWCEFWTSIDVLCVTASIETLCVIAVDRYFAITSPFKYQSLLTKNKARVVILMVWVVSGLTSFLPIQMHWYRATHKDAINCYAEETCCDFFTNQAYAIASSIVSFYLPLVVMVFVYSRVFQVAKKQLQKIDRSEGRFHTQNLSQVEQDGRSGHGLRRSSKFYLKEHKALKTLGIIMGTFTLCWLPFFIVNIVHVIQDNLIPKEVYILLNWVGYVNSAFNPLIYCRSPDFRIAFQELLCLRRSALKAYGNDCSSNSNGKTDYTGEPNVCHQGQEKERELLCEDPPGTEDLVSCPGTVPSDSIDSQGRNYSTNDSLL
Chain of Beta-1 adrenergic receptor (P08588 whole entry): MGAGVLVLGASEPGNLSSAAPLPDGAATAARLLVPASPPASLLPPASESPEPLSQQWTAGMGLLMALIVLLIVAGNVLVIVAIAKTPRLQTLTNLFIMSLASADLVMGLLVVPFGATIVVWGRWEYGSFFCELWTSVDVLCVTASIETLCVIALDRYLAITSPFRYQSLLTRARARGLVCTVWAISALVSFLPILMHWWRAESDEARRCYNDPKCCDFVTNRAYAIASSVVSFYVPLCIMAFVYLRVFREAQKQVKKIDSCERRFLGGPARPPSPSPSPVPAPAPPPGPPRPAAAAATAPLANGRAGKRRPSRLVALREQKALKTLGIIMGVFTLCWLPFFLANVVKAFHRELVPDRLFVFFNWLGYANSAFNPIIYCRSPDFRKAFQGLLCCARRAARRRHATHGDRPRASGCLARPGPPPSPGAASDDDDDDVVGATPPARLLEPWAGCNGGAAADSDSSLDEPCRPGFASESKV
Chain of Muscarinic acetylcholine receptor M3 (Cavia porcellus) (Q8VH26 1-587): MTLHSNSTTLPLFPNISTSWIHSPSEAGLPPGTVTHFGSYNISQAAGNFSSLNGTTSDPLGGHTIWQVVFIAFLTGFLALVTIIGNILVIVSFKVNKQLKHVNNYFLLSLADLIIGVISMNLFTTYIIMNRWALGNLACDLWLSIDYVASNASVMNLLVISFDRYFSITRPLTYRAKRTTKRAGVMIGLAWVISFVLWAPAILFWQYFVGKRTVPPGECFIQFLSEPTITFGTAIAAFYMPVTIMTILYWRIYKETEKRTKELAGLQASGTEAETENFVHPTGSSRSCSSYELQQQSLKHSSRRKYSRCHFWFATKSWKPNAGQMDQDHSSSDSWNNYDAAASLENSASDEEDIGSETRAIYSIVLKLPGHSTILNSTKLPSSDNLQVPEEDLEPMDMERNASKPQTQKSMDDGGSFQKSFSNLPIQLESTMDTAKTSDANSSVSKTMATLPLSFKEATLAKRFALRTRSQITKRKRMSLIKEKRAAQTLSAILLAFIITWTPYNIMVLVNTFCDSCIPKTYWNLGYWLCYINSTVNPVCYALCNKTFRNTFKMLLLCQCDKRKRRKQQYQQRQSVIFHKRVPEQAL
Chain of Muscarinic acetylcholine receptor M3 (Cavia porcellus, UniProt Q8VH26) (Q8VH26 whole entry): as the sequence (Q8VH26 1-587) above

For CS(=O)(=O)Nc1cc([C@@H](O)CNCCCCCCCCCN2CCC(OC(=O)Nc3ccccc3-c3ccc(O)c(Cl)c3)CC2)ccc1O, the TIME [1] was over 11 h, the Activity [2] was “Non-toxic” and the pEC50 [3] was 7.92. For the same molecule, the Activity [4] was “Active”, the pEC50 [5] was 8.43 and the Drug metabolism [6] was “Active”. The Activity [7] was “Active”, the microsomal CLint [8] was 23 µL/min/mg and the ID50 [9] was 50 µg. The AUC [10] was 0.125 µg·h/mL, the Stability [11] was “Stable” and the half-life [12] was 0.8 h. The Time [13] was 14 h, the pEC50 [14] was under 5.00 and the pEC50 [15] was 8.24. The AUC [16] was 0.92 µg·h/mL, the pKi [17] was 9.14 and the AUC [18] was 0.256 µg·h/mL. The Ratio EC50 [19] was 1.5, the Activity [20] was “Active” and the Activity [21] was “Non-toxic”. For the same molecule, the microsomal CLint [22] was 24 µL/min/mg, the Activity [23] was “Non-toxic” and the Activity [24] was “Active”. For the same molecule, the half-life [25] was 1.6 h, the TIME [26] was 1.95 h and the CL/F [27] was 0.84 L/h/kg. For the same molecule, the TIME [28] was over 11 h, the CL/F [29] was 0.216 L/h/kg and the clearance [30] was 9.84 L/h/kg. For the same molecule, the pEC50 [31] was 8.14.
